Measurements published in PubChem BioAssay (NCI).
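In this assay, cells in 96-well plates receive the compound at five concentrations for 48 hours. Endpoints are linearly interpolated between the surrounding concentrations. TGI: total growth inhibition.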

Legend:
Experiment in all cases: DTP human tumour cell line panel, 48 h
A549 NSCLC = tested on: A549 NSCLC
M14 melanoma = tested on: M14 melanoma
HT29 colon = tested on: HT29 colon
OVCAR-3 ovarian = tested on: OVCAR-3 ovarian
SNB-75 CNS = tested on: SNB-75 CNS
HS 578T breast = tested on: HS 578T breast
NCI-H23 lung = tested on: NCI-H23 lung
SK-MEL-28 melanoma = tested on: SK-MEL-28 melanoma
HL-60(TB) leukemia = tested on: HL-60(TB) leukemia
K-562 leukemia = tested on: K-562 leukemia
MCF7 breast = tested on: MCF7 breast
EKVX NSCLC = tested on: EKVX NSCLC
HCT-116 colon = tested on: HCT-116 colon
OVCAR-8 ovarian = tested on: OVCAR-8 ovarian
BT-549 breast = tested on: BT-549 breast
MOLT-4 leukemia = tested on: MOLT-4 leukemia
SF-539 CNS = tested on: SF-539 CNS
SF-295 CNS = tested on: SF-295 CNS
HCC-2998 colon = tested on: HCC-2998 colon
SK-OV-3 ovarian = tested on: SK-OV-3 ovarian
NCI/ADR-RES ovarian = tested on: NCI/ADR-RES ovarian
SR leukemia = tested on: SR leukemia
NCI-H226 lung = tested on: NCI-H226 lung
MDA-MB-231 breast = tested on: MDA-MB-231 breast
SF-268 CNS = tested on: SF-268 CNS
RXF 393 renal = tested on: RXF 393 renal
PC-3 prostate = tested on: PC-3 prostate
DU-145 prostate = tested on: DU-145 prostate
U251 CNS = tested on: U251 CNS
CAKI-1 renal = tested on: CAKI-1 renal
IGROV1 ovarian = tested on: IGROV1 ovarian
UACC-62 melanoma = tested on: UACC-62 melanoma
CCRF-CEM leukemia = tested on: CCRF-CEM leukemia
TK-10 renal = tested on: TK-10 renal
T-47D breast = tested on: T-47D breast
SW-620 colon = tested on: SW-620 colon
HCT-15 colon = tested on: HCT-15 colon
MDA-N = tested on: MDA-N
SN12C renal = tested on: SN12C renal
OVCAR-5 ovarian = tested on: OVCAR-5 ovarian
COLO 205 colon = tested on: COLO 205 colon
SK-MEL-5 melanoma = tested on: SK-MEL-5 melanoma
UO-31 renal = tested on: UO-31 renal
NCI-H460 lung = tested on: NCI-H460 lung
MALME-3M melanoma = tested on: MALME-3M melanoma
LOX IMVI melanoma = tested on: LOX IMVI melanoma
OVCAR-4 ovarian = tested on: OVCAR-4 ovarian
MDA-MB-435 = tested on: MDA-MB-435
HOP-92 NSCLC = tested on: HOP-92 NSCLC
HOP-62 NSCLC = tested on: HOP-62 NSCLC
UACC-257 melanoma = tested on: UACC-257 melanoma
SK-MEL-2 melanoma = tested on: SK-MEL-2 melanoma
A498 renal = tested on: A498 renal
786-0 renal = tested on: 786-0 renal
KM12 colon = tested on: KM12 colon
SNB-19 CNS = tested on: SNB-19 CNS
RPMI-8226 leukemia = tested on: RPMI-8226 leukemia
ACHN renal = tested on: ACHN renal
NCI-H522 lung = tested on: NCI-H522 lung

In the case of `CO/N=C1\CC(NC(=O)C(F)(F)F)c2ccsc21` (stereo not given), the TGI (A549 NSCLC) is reported as > 100 µM, the TGI (M14 melanoma) is reported as > 100 µM and the TGI (HT29 colon) is reported as > 100 µM. For the same compound, the TGI (OVCAR-3 ovarian) was > 100 µM, the TGI (SNB-75 CNS) was > 100 µM and the TGI (HS 578T breast) was > 100 µM. The TGI (NCI-H23 lung) was > 100 µM, the TGI (SK-MEL-28 melanoma) was > 100 µM and the TGI (HL-60(TB) leukemia) was > 100 µM. The TGI (K-562 leukemia) was > 100 µM, the TGI (MCF7 breast) was > 100 µM and the TGI (EKVX NSCLC) was > 100 µM. The TGI (HCT-116 colon) was > 100 µM, the TGI (OVCAR-8 ovarian) was > 100 µM and the TGI (BT-549 breast) was > 100 µM. The TGI (MOLT-4 leukemia) was > 100 µM, the TGI (SF-539 CNS) was > 100 µM and the TGI (SF-295 CNS) was > 100 µM. The TGI (HCC-2998 colon) was > 100 µM, the TGI (SK-OV-3 ovarian) was > 100 µM and the TGI (NCI/ADR-RES ovarian) was > 100 µM. The TGI (SR leukemia) was > 100 µM, the TGI (NCI-H226 lung) was > 100 µM and the TGI (MDA-MB-231 breast) was > 100 µM. For the same compound, the TGI (SF-268 CNS) was > 100 µM, the TGI (RXF 393 renal) was > 100 µM and the TGI (PC-3 prostate) was > 100 µM. For the same compound, the TGI (DU-145 prostate) was > 100 µM, the TGI (U251 CNS) was > 100 µM and the TGI (CAKI-1 renal) was > 100 µM. For the same compound, the TGI (IGROV1 ovarian) was > 100 µM, the TGI (UACC-62 melanoma) was > 100 µM and the TGI (CCRF-CEM leukemia) was > 100 µM. The TGI (TK-10 renal) was > 100 µM, the TGI (T-47D breast) was > 100 µM and the TGI (SW-620 colon) was > 100 µM. The TGI (HCT-15 colon) was > 100 µM, the TGI (MDA-N) was > 100 µM and the TGI (SN12C renal) was > 100 µM. For the same compound, the TGI (OVCAR-5 ovarian) was > 100 µM, the TGI (COLO 205 colon) was > 100 µM and the TGI (SK-MEL-5 melanoma) was > 100 µM. The TGI (UO-31 renal) was > 100 µM, the TGI (NCI-H460 lung) was > 100 µM and the TGI (MALME-3M melanoma) was > 100 µM. The TGI (LOX IMVI melanoma) was > 100 µM, the TGI (OVCAR-4 ovarian) was > 100 µM and the TGI (MDA-MB-435) was > 100 µM. For the same compound, the TGI (HOP-92 NSCLC) was > 100 µM, the TGI (HOP-62 NSCLC) was > 100 µM and the TGI (UACC-257 melanoma) was > 100 µM. The TGI (SK-MEL-2 melanoma) was > 100 µM and the TGI (A498 renal) was > 100 µM.
For `O=c1oc2ccc3ccccc3c2cc1-c1cn2ccsc2n1`, the TGI (A549 NSCLC) was > 100 µM, the TGI (M14 melanoma) was 60.5 µM and the TGI (HT29 colon) was 37.8 µM. The TGI (OVCAR-3 ovarian) was 43.8 µM, the TGI (SNB-75 CNS) was > 100 µM and the TGI (HS 578T breast) was > 100 µM. The TGI (NCI-H23 lung) was 92 µM, the TGI (SK-MEL-28 melanoma) was 57.3 µM and the TGI (786-0 renal) was 32.7 µM. The TGI (HL-60(TB) leukemia) was 51.7 µM, the TGI (KM12 colon) was 66.2 µM and the TGI (K-562 leukemia) was 82.4 µM. For the same compound, the TGI (MCF7 breast) was 19 µM, the TGI (SNB-19 CNS) was > 100 µM and the TGI (EKVX NSCLC) was 54.5 µM. For the same compound, the TGI (HCT-116 colon) was 30.9 µM, the TGI (OVCAR-8 ovarian) was 41.2 µM and the TGI (BT-549 breast) was 32.6 µM. For the same compound, the TGI (MOLT-4 leukemia) was 14.9 µM, the TGI (SF-539 CNS) was 51.2 µM and the TGI (SF-295 CNS) was > 100 µM. For the same compound, the TGI (HCC-2998 colon) was 67.9 µM, the TGI (RPMI-8226 leukemia) was 46.2 µM and the TGI (SK-OV-3 ovarian) was > 100 µM. For the same compound, the TGI (NCI/ADR-RES ovarian) was 96.2 µM, the TGI (SR leukemia) was 46.9 µM and the TGI (MDA-MB-231 breast) was 57.4 µM. For the same compound, the TGI (SF-268 CNS) was 56.3 µM, the TGI (RXF 393 renal) was 37.4 µM and the TGI (PC-3 prostate) was 96.4 µM. For the same compound, the TGI (DU-145 prostate) was 47.3 µM, the TGI (U251 CNS) was > 100 µM and the TGI (CAKI-1 renal) was 59 µM. For the same compound, the TGI (IGROV1 ovarian) was 23.2 µM, the TGI (UACC-62 melanoma) was 34.2 µM and the TGI (CCRF-CEM leukemia) was 51.6 µM. The TGI (TK-10 renal) was 33.9 µM, the TGI (ACHN renal) was 32.1 µM and the TGI (T-47D breast) was 57.6 µM. The TGI (SW-620 colon) was 46.8 µM, the TGI (HCT-15 colon) was 35.9 µM and the TGI (MDA-N) was 46.3 µM. For the same compound, the TGI (NCI-H522 lung) was 36.8 µM, the TGI (SN12C renal) was 83.8 µM and the TGI (OVCAR-5 ovarian) was 66.6 µM. The TGI (COLO 205 colon) was 33.3 µM, the TGI (SK-MEL-5 melanoma) was 56.5 µM and the TGI (UO-31 renal) was 31.7 µM. For the same compound, the TGI (NCI-H460 lung) was > 100 µM, the TGI (MALME-3M melanoma) was 41.1 µM and the TGI (LOX IMVI melanoma) was 31.7 µM. It also gave a TGI (OVCAR-4 ovarian) of 40.7 µM, a TGI (MDA-MB-435) of 46 µM and a TGI (HOP-92 NSCLC) of 30 µM. The TGI (HOP-62 NSCLC) was > 100 µM, the TGI (UACC-257 melanoma) was 66.1 µM and the TGI (SK-MEL-2 melanoma) was > 100 µM.
